Test results published in patent publication US9073925B2, “Azinone-substituted azabicycloalkane-indole and azabicycloalkane-pyrrolo-pyridine MCH-1 antagonists, methods of making, and use thereof” (Albany Molecular Research, Inc., priority 2009, dated 2015).
pKi: −log10 of the molar value. Counter-ions that a name gives are not always drawn.

Each compound was assayed against human MCH-1 receptor (Homo sapiens (Human), UniProt Q99705) (assay: Binding assay for human melanin-concentrating hormone (MCH1) receptor). Conditions: membranes from CHO-K1 cells expressing human MCH-1 receptor; 1.4 nM [3H]-labeled radioligand; 60 min at 25° C.; Ki by Cheng Prusoff.
Chain of human MCH-1 receptor (Q99705 whole entry): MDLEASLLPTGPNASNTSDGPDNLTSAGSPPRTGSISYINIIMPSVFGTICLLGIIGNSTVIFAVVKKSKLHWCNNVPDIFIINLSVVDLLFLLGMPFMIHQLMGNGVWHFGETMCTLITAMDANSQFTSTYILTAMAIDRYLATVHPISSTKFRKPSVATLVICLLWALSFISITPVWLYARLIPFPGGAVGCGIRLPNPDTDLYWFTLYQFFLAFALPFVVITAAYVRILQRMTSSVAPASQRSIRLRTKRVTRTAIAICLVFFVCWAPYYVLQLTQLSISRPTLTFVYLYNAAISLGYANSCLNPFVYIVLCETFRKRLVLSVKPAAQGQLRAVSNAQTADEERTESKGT
Procedure: Evaluation of the affinity of compounds for the human MCH-1 receptor was accomplished using 4-(3,4,5-tritritiumbenzyloxy)-1-(1-(2-(pyrrolidin-1-yl)ethyl)-1H-indazol-5-yl)pyridin-2(1H)-one and membranes prepared from stable CHO-K1 cells expressing the human MCH-1 receptor obtained from Euroscreen (Batch 1138). Cell membrane homogenates (8.92 μg protein) were incubated for 60 min at 25° C. with 1.4 nM of the [^3H]-labeled compound in the absence or presence of the test compound in 50 mM Tris-HCl buffer, pH 7.4. Nonspecific binding was determined in the presence of 50 μM 1-(5-(4-cyanophenyl)bicyclo[3.1.0]hexan-2-yl)-3-(4-fluoro-3-(trifluoromethyl)phenyl)-1-(3-(4-methylpiperazin-1-yl)propyl)urea. Following incubation, the samples were filtered rapidly under vacuum through Skatron 11731 filters, pre-soaked in 0.5% polyethylenimine, and washed with ice-cold 50 mM Tris-HCl buffer, pH 7.4, (wash setting 9,9,0) using a Skatron cell harvester. The filters were counted for radioactivity in a liquid scintillation counter (Tri-Carb 2100TR, Packard) using a scintillation cocktail (Ultima Gold MV, Perkin Elmer).
The results are expressed as a percent inhibition of the control radioligand specific binding. The IC50 value (concentration causing a half-maximal inhibition of control specific binding) and Hill coefficient (nH) were determined by non-linear regression analysis of the competition curve using Hill equation curve fitting. The inhibition constant (Ki) was calculated from the Cheng Prusoff equation: (Ki=IC50/(1+(L/KD)), where L=concentration of radioligand in the assay, and KD=affinity of the radioligand for the receptor.

| pKi | SMILES |
| --- | --- |
| 7.82 | Cn1c2c(c3ccc(-n4ccc(-c5ccc(C(F)(F)F)cc5)cc4=O)nc31)CN1CCC2CC1 [Example 10, 1-(10-Methyl-7,8,9,10-tetrahydro-5H-6,9-ethanopyrido[3′,2′:4,5]pyrrolo[3,2-c]azepin-2-yl)-4-(4-(trifluoromethyl)phenyl)pyridin-2(1H)-one hydrochloride] |
| 7.60 | Cn1c2c(c3ccc(-n4ccc(OCc5ccc(F)cn5)cc4=O)nc31)CN1CCC2CC1 [Example 11, 4-((5-Fluoropyridin-2-yl)methoxy)-1-(10-methyl-7,8,9,10-tetrahydro-5H-6,9-ethanopyrido[3′,2′:4,5]pyrrolo[3,2-c]azepin-2-yl)pyridin-2(1H)-one hydrochloride] |
| 7.82 | Cn1c2c(c3ccc(-n4ccc(OCc5ccc(F)cc5F)cc4=O)nc31)CN1CCC2CC1 [Example 9, 4-(2,4-Difluorobenzyloxy)-1-(10-methyl-7,8,9,10-tetrahydro-5H-6,9-ethanopyrido[3′,2′:4,5]pyrrolo[3,2-c]azepin-2-yl)pyridin-2(1H)-one hydrochloride] |

The remaining lines, values behind:

| SMILES | pKi |
| --- | --- |
| Cn1c2c(c3ccc(-n4ccc(OCc5ccccc5)cc4=O)cc31)CN1CCC2CC1 [Example 3, 4-(Benzyloxy)-1-(6-methyl-3,4,5,6-tetrahydro-1H-2,5-ethanoazepino[4,3-b]indol-8-yl)pyridin-2(1H)-one hydrochloride] | 8.23 |
| Cn1c2c(c3ccc(-n4ccc(OCc5ccc(F)cn5)cc4=O)cc31)CN1CCC2CC1 [Example 4, 4-((5-Fluoropyridin-2-yl)methoxy)-1-(6-methyl-3,4,5,6-tetrahydro-1H-2,5-ethanoazepino[4,3-b]indol-8-yl)pyridin-2(1H)-one hydrochloride] | 7.36 |
| Cn1c2c(c3ccc(-n4ccc(OCc5ccccc5)cc4=O)cc31)CN1CCC2C1 (stereo not shown) [Example 2, 4-(Benzyloxy)-1-(6-methyl-3,4,5,6-tetrahydro-1H-2,5-methanoazepino[4,3-b]indol-8-yl)pyridin-2(1H)-one hydrochloride] | 8.19 |
| Cn1c2c(c3ccc(-n4ccc(OCc5ccc(C(F)(F)F)nc5)cc4=O)cc31)CN1CCC2CC1 [Example 7, 1-(6-Methyl-3,4,5,6-tetrahydro-1H-2,5-ethanoazepino[4,3-b]indol-8-yl)-4-((6-(trifluoromethyl)pyridin-3-yl)methoxy)pyridin-2(1H)-one hydrochloride] | 7.96 |
| Cn1c2c(c3ccc(-n4ccc(-c5ccc(C(F)(F)F)cn5)cc4=O)cc31)CN1CCC2CC1 [Example 6, 1-(6-Methyl-3,4,5,6-tetrahydro-1H-2,5-ethanoazepino[4,3-b]indol-8-yl)-4-(5-(trifluoromethyl)pyridin-2-yl)pyridin-2(1H)-one hydrochloride] | 6.91 |
| Cn1c2c(c3ccc(-n4ccc(OCc5ccccc5)cc4=O)nc31)CN1CCC2CC1 [Example 8, 4-(Benzyloxy)-1-(10-methyl-7,8,9,10-tetrahydro-5H-6,9-ethanopyrido[3′,2′:4,5]pyrrolo[3,2-c]azepin-2-yl)pyridin-2(1H)-one hydrochloride] | 7.54 |
| Cn1c2c(c3ccc(-n4ccc(-c5ccc(C(F)(F)F)nn5)cc4=O)cc31)CN1CCC2CC1 [Example 5, 1-(6-Methyl-3,4,5,6-tetrahydro-1H-2,5-ethanoazepino[4,3-b]indol-8-yl)-4-(6-(trifluoromethyl)pyridazin-3-yl)pyridin-2(1H)-one hydrochloride] | 7.64 |
